Data published in US20110306554A1, “PEPTIDE CAPABLE OF BINDING TO IMMUNOGLOBULIN” (priority 2009, published 2011).

Test system: Monoclonal antibody cocktail-induced arthritis mice
Experiment: Arthritis suppressing effects on arthritis-induced mice, Part 3
Type: in vivo
Conditions: 10 mg/kg intravenously once a day from day 4, 10 days
Description: Monoclonal antibody cocktail-induced arthritis mice were used to examine arthritis suppressing effects of peptides which are indicated as R13 and R17 in the section (3) in Example 2. Arthritis was caused by intravenous administration of 2 mg/mouse of an arthritis-inducing monoclonal antibody cocktail and three days later, intraperitoneal administration of 50 μg/mouse of LPS. The peptides were given via intraperitoneal or intravenous administration at a dose of 10 mg/kg once a day for a period of 10 consecutive days from four days after the administration of the arthritis-inducing monoclonal antibody cocktail, and arthritis suppressing effect was examined in terms of clinical score and hind-limb volume determination.
The required amount was calculated for each peptide, based on the animal weight. Each peptide solution was prepared using physiological saline (at 0.1 mg/ml for R1, 1 mg/ml for R2, and 1 or 10 mg/ml for R13 and R17), and cold stored. […]
Results of examinations were expressed by mean value±standard error and analyzed using EXSAS (Version 7.1.6, Arm Systex Co., Ltd.). […] Quantitative data, such as body weights and leg volumes, were subjected to Bartlett's test, followed by Dunnett's multiple comparison test when the variance was uniform or Steel's multiple comparison test when the variance was not uniform.

KFTSKVPGLYYFVYH (Immunoglobulin binding peptide) [R17]
arthritis-suppressing effect (clinical score): arthritis-suppressing effects comparable to those of the groups receiving administration of R1 (intravenously) or R2 (intraperitoneally)
